Key:
[1] = Inhibition of Iks current in isolated guinea pig myocytes during a 1s voltage clamp step from -50 to +50 mV.; type: functional, cell-based; conditions: Cavia porcellus
[2] = target: T1, IKr current (KCNH2 potassium channel) (Homo sapiens, UniProt Q12809); experiment: Inhibition of Ikr current in isolated guinea pig myocytes during a 0.5 s voltage clamp step from -50 to -10 mV at 1000 nM; type: functional, cell-based, Cavia porcellus; conditions: target entry is the homologue from another species
T1 sequence (Q12809 whole entry): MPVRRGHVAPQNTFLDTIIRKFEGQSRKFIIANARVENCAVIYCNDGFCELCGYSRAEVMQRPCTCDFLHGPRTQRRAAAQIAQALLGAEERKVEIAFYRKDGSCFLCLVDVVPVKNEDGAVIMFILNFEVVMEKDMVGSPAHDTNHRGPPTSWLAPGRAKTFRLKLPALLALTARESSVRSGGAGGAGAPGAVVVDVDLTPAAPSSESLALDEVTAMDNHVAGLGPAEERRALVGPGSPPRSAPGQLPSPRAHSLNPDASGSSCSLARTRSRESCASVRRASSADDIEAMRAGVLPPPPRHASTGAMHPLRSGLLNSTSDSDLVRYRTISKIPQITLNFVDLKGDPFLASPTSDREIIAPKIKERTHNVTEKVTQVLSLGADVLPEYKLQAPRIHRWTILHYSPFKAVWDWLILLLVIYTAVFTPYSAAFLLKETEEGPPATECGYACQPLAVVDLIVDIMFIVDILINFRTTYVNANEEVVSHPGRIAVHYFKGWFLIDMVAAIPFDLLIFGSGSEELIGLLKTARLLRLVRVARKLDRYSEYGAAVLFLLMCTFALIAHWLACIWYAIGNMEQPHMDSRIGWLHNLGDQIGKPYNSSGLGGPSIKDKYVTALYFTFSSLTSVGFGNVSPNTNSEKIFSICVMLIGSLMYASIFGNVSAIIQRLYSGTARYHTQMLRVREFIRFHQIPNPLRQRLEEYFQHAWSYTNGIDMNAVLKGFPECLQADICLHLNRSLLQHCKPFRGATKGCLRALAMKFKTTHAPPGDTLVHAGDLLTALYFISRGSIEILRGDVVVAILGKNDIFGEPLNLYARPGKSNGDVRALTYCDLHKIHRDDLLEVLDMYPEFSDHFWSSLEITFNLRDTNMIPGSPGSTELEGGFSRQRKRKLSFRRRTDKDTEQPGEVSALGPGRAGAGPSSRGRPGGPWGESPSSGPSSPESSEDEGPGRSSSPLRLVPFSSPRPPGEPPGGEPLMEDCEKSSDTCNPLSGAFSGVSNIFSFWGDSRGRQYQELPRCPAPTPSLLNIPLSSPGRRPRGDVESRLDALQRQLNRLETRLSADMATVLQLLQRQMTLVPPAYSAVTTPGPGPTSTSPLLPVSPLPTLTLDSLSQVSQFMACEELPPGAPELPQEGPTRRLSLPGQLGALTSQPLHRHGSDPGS

[3] = target: T1, IKr current (KCNH2 potassium channel); experiment: Inhibition of Ikr current in isolated guinea pig myocytes during a 0.5 s voltage clamp step from -50 to -10 mV at 100 nM; type: functional, cell-based, Cavia porcellus; conditions: target entry is the homologue from another species
[4] = target: Voltage-gated inwardly rectifying potassium channel KCNH2 (Homo sapiens, UniProt Q12809); experiment: Inhibition of Ikr current in isolated guinea pig myocytes during a 0.5 s voltage clamp step from -50 to -10 mV.; type: functional, cell-based, Cavia porcellus; conditions: target entry is the homologue from another species
Voltage-gated inwardly rectifying potassium channel KCNH2, sequence (Q12809 whole entry): as above

Compound | IC50 [1] [nM] | inhibition at 1 µM [2] [%] | also measured
CN1C(=O)[C@H](NC(=O)Cc2ccc(C(F)(F)F)cc2C(F)(F)F)N=C(c2ccccc2)c2ccccc21 | 140 | – | –
CN1C(=O)[C@H](NC(=O)Cc2ccccc2)N=C(c2ccccc2)c2ccccc21 | 300 | 31 | –
CN1C(=O)[C@H](NC(=O)CCc2ccccc2)N=C(c2ccccc2)c2ccccc21 | 200 | 32 | –
CC(C)N1C(=O)[C@H](NC(=O)CCC2CCCCC2)N=C(c2ccccc2)c2ccccc21 | 20 | – | –
CC(C)N1C(=O)[C@H](NC(=O)c2cc(Cl)cc(Cl)c2)N=C(c2ccccc2)c2ccccc21 | 6 | – | –
CN1C(=O)[C@H](NC(=O)c2cc(Cl)cc(Cl)c2)N=C(c2ccccc2)c2ccccc21 | 45 | 17 | –
O=C(N[C@@H]1N=C(c2ccccc2)c2ccccc2N(CC(F)(F)F)C1=O)c1cc(Cl)cc(Cl)c1 | 11 | – | inhibition at 0.1 µM [3]: 25%
O=C(Cc1ccc(Cl)cc1Cl)N[C@@H]1N=C(c2ccccc2)c2ccccc2N(CC(F)(F)F)C1=O | 9 | – | –
CN(C)CCN1C(=O)C(NC(=O)CCc2ccc(Cl)cc2Cl)N=C(c2ccccc2)c2ccccc21 (stereo not drawn) | – | – | IC50 [4]: 100 nM
CN1C(=O)[C@H](NC(=O)c2ccccc2)N=C(c2ccccc2)c2ccccc21 | 600 | 23 | –
CC(C)N1C(=O)[C@@H](NC(=O)c2cc(Cl)cc(Cl)c2)N=C(c2ccccc2)c2ccccc21 | – | 6 | –
CN1C(=O)[C@H](NC(=O)/C=C/c2ccc(Cl)cc2Cl)N=C(c2ccccc2)c2ccccc21 | 6 | – | –
CN1C(=O)[C@H](NC(=O)C(N)Cc2ccccc2)N=C(c2ccccc2)c2ccccc21 (stereo partly drawn) | 2800 | – | –
CC(=O)Nc1ccc(CCC(=O)N[C@@H]2N=C(c3ccccc3)c3ccccc3N(C)C2=O)cc1 | > 10000 | – | –
O=C(Cc1cc(Cl)cc(Cl)c1)N[C@@H]1N=C(c2ccccc2)c2ccccc2N(CC(F)(F)F)C1=O | 30 | – | IC50 [4]: 4000 nM
CN1C(=O)[C@H](NC(=O)CCC2CCCCC2)N=C(c2ccccc2)c2ccccc21 | 10 | – | IC50 [4]: 1000 nM
O=C(Cc1ccc(C(F)(F)F)cc1C(F)(F)F)N[C@H]1N=C(c2ccccc2)c2ccccc2N(CC(F)(F)F)C1=O | – | 35 | –
CC(C)N1C(=O)[C@H](NC(=O)Cc2cc(Cl)cc(Cl)c2)N=C(c2ccccc2)c2ccccc21 | 10 | – | –
CN1C(=O)[C@H](NC(=O)CCc2ccc(Cl)cc2Cl)N=C(c2ccccc2)c2ccccc21 | – | 31 | –
Cc1cccc(NC(=O)N[C@@H]2N=C(c3ccccc3)c3ccccc3N(C)C2=O)c1 [L-365260] | 214 | – | –
O=C(Cc1ccc(C(F)(F)F)cc1C(F)(F)F)N[C@@H]1N=C(c2ccccc2)c2ccccc2N(CC(F)(F)F)C1=O [L-768673] | 6 | – | –
